Consider 33 compounds from PMC10319850, “Crystal structure of [1,2,4] triazolo[4,3- b ]pyridazine derivatives as BRD4 bromodomain inhibitors and structure–activity relationship study” (Scientific Reports, 2023).

One may read the IC50 as the concentration that gives 50% inhibition.

Read-outs that look alike come from different tables or passages of the source.

One assay concerns the target BRD4 BD1 (Homo sapiens, UniProt O60885). Kind of assay: AlphaScreen assay, BRD4 BD1 inhibition. In kind it is binding. Conditions: for inhibitory activity against BD1 (in words): measured range 0.0096 to 32 μM. The procedure: To find the hit molecules for BRD4 bromodomain inhibitor discovery, we performed an in vitro AlphaScreen assay with in-house chemical libraries.
The AlphaScreen assay was described previously and performed according to the manufacturer’s protocol (PerkinElmer, USA). The reaction buffer was 50 mM HEPES pH 7.4, 100 mM NaCl, 0.1% BSA, and 0.05% CHAPS.
Background: Alpha assays give light when donor and acceptor beads are brought close together.

The target of a further assay is BRD4 BD2 (Homo sapiens, UniProt O60885). The assay can be described thus: AlphaScreen assay, BRD4 BD2 inhibition. As to conditions: for inhibitory activity for BD2 (in words): AlphaScreen.
[1] abbreviates: Supplementary Table S2, mean of three independent measurements, 8-point titration from 0.0096 to 32 μM, read-out: IC50 (μM) for BD1.
[2] abbreviates: AlphaScreen, N = 3, standard deviations in parentheses, read-out: IC50 (BD1).

With `Cc1nnc2ccc(N3CCC4(CCNCC4)CC3)nn12` [Compound 22], at BRD4 BD1 (setting [1]), the IC50 was greater than 32 µM.
Turning to `FC(F)(F)c1nnc2ccc(NCC(c3ccccc3)c3c[nH]c4ccccc34)nn12` (stereo not drawn) [Compound 9, N-[2-(1H-indol-3-yl)-2-phenylethyl]-3-(trifluoromethyl)-[1,2,4]triazolo[4,3-b]pyridazin-6-amine], the “inhibitory activity against BD1 (in words)” value at BRD4 BD1 (AlphaScreen) was “increased the IC50 value by only twofold compared to that of 6”. Moreover, at BRD4 BD1 (setting [1]), the IC50 amounted to 23.4 ± 8.3 µM.
The like results for `CCOC(=O)CCNc1ccc2nnc(C)n2n1` [Compound 33] were, in that order, “showed inhibitory activity” and 7.51 ± 0.63 µM.
In the case of `Cc1nnc2ccc(N3CCC4(CCN(C(=O)OC(C)(C)C)CC4)CC3)nn12` [Compound 19], at BRD4 BD1 (AlphaScreen), the “inhibitory activity against BD1 (in words)” value is “exhibited inhibitory activities”. Moreover, the IC50 on BRD4 BD1 (setting [1]) came out at 9.22 ± 1.6 µM.
The like results for `Cc1nnc2ccc(N3CCC4(CC3)CN(C(=O)OC(C)(C)C)C4)nn12` [Compound 21] were, in that order, “exhibited inhibitory activities” and 6.21 ± 1.2 µM.
Take `CC(C)c1nnc2ccc(N3CCC(C(=O)NC4CC4)CC3)nn12` [Compound 26, N-cyclopropyl-1-[3-(propan-2-yl)[1,2,4]triazolo[4,3-b]pyridazin-6-yl]piperidine-4-carboxamide]: the IC50 at BRD4 BD1 (setting [1]) was greater than 32 µM.
As to `Cc1nnc2ccc(NCCO)nn12` [Compound 31], the IC50 at BRD4 BD1 (setting [1]) was greater than 32 µM.
As to `Fc1ccc2[nH]c3c(c2c1)CCN(c1ccc2nnc(-c4ccccc4F)n2n1)C3` [Compound 11, 6-Fluoro-2-[3-(2-fluorophenyl)-[1,2,4]triazolo[4,3-b]pyridazin-6-yl]-1,3,4,9-tetrahydropyrido[3,4-b]indole], at BRD4 BD1 (AlphaScreen), the “inhibitory activity against BD1 (in words)” value was “no inhibition”. Besides, the IC50 at BRD4 BD1 (setting [1]) was greater than 32 µM.
The like results for `CC1CCN(c2ccc3nnc(CNS(=O)(=O)N(C)C)n3n2)CC1` [Compound 15] were, in that order, “no inhibitory efficacy” and greater than 32 µM.
Turning to `CCS(=O)(=O)NCCNc1ccc2nnc(C)n2n1` [Compound 29], at BRD4 BD1 (setting [1]), the IC50 is greater than 32 µM.
With `Cc1nnc2ccc(N3CCOCC3)nn12` [Compound 16], the “inhibitory activity against BD1 (in words)” value at BRD4 BD1 (AlphaScreen) is “no inhibitory efficacy”. The IC50 at BRD4 BD1 (setting [1]) was greater than 32 µM.
For the compound `FC(F)(F)c1nnc2ccc(NCCc3c[nH]c4ccccc34)nn12` [Compound 6, N-[2-(1H-indol-3-yl)ethyl)-3-(trifluoromethyl)-[1,2,4]triazolo[4,3-b]pyridazin-6-amine], the “inhibitory activity against BD1 (in words)” value on BRD4 BD1 (AlphaScreen) is listed as “did not much improved the IC50 value”. At BRD4 BD1 (setting [2]), the IC50 is 9.6 µM. Further, on BRD4 BD2, inhibition was half-maximal at 11.3 µM (IC50) and the “inhibitory activity for BD2 (in words)” value is “have inhibitory activities for BD2”.
As to `CCc1nnc2ccc(NC(CO)Cc3c[nH]c4ccccc34)nn12` (stereo not drawn) [Compound 12, 2-[(3-ethyl-[1,2,4]triazolo[4,3-b]pyridazin-6-yl)amino]-3-(1H-indol-3-yl)propan-1-ol], the “inhibitory activity against BD1 (in words)” value on BRD4 BD1 (AlphaScreen) is on record as “decreased blocking efficiency compared to that of 5”. The IC50 at BRD4 BD1 (setting [2]) was determined as 25.2 µM. At BRD4 BD2, the midpoint of inhibition, the IC50, lay at 36.5 µM and the “inhibitory activity for BD2 (in words)” value was “have inhibitory activities for BD2”.
Consider `Cc1nnc2ccc(N3C4CCC3COC4)nn12` [Compound 18], for which the “inhibitory activity against BD1 (in words)” value on BRD4 BD1 (AlphaScreen) was “no inhibitory efficacy”. Moreover, on BRD4 BD1 (setting [1]), the IC50 is greater than 32 µM.
For `Cc1nnc2ccc(NCCNC(=O)Nc3ccccc3)nn12` [Compound 40], the IC50 at BRD4 BD1 (setting [1]) was greater than 32 µM.
Take `Cc1nnc2ccc(NCCc3c[nH]c4ccc(F)cc34)nn12` [Compound 7, N-[2-(5-fluoro-1H-indol-3-yl)ethyl]-3-methyl-[1,2,4]triazolo[4,3-b]pyridazin-6-amine]: the “inhibitory activity against BD1 (in words)” value at BRD4 BD1 (AlphaScreen) is “nearly same blocking efficacy”. On BRD4 BD1 (setting [1]), the IC50 amounted to 29 ± 5.7 µM.
The like results for `Fc1cc2[nH]cc(CCNc3ccc4nnc(C5CC5)n4n3)c2cc1Cl` [Compound 10, N-[2-(5-chloro-6-fluoro-1H-indol-3-yl)ethyl]-3-cyclopropyl-[1,2,4]triazolo[4,3-b]pyridazin-6-amine] were, in that order, “no inhibitory efficiency in the measured range” and greater than 32 µM.
`Cc1nnc2ccc(NCc3ccccc3)nn12` [Compound 35]: the IC50 on BRD4 BD1 (setting [1]) worked out at 10.2 ± 1.29 µM.
Same read-out and setting: the result for `Cc1nnc2ccc(NCCC(=O)O)nn12` [Compound 28] reads greater than 32 µM; that for `CC(C)N1CCN(c2ccc3nnc(C4CCC4)n3n2)CC1` [Compound 27, 3-cyclobutyl-6-(4-isopropylpiperazino)[1,2,4]triazolo[4,3-b]pyridazine], greater than 32 µM.
For the compound `COc1ccc(CNc2ccc3nnc(C)n3n2)cc1` [Compound 37], at BRD4 BD1 (setting [1]), the IC50 is 8.91 ± 0.94 µM.
On the same count and under the same terms, next, `CC(C)CCNC(=O)C1CCN(c2ccc3nnc(C(C)C)n3n2)CC1` [Compound 25, N-(3-methylbutyl)-1-[3-(propan-2-yl)[1,2,4]triazolo[4,3-b]pyridazin-6-yl]piperidine-4-carboxamide]: greater than 32 µM; `Cc1nnc2ccc(NCCNC(=O)c3ccccc3)nn12` [Compound 39]: greater than 32 µM.
In the case of `Cc1nnc2ccc(N3CCCCC3)nn12` [Compound 13], the “inhibitory activity against BD1 (in words)” value against BRD4 BD1 (AlphaScreen) is recorded as “no blocking activities”. Besides, the IC50 on BRD4 BD1 (setting [1]) was greater than 32 µM.
In the case of `Cc1nnc2ccc(N3CCC4(CC3)OCCO4)nn12` [Compound 20], the IC50 at BRD4 BD1 (setting [1]) was greater than 32 µM.
For `COc1ccc2[nH]cc(CCNc3ccc4nnc(C)n4n3)c2c1` [Compound 8, N-[2-(5-methoxy-1H-indol-3-yl)ethyl)-3-methyl-[1,2,4]triazolo[4,3-b]pyridazin-6-amine], the “inhibitory activity against BD1 (in words)” value on BRD4 BD1 (AlphaScreen) is “nearly same blocking efficacy”. Moreover, the IC50 on BRD4 BD1 (setting [1]) is 25.7 ± 11.1 µM.
Consider `CCC(=O)NCCNc1ccc2nnc(C)n2n1` [Compound 34], for which the IC50 on BRD4 BD1 (setting [1]) was greater than 32 µM.
`Cc1nnc2ccc(NCCc3c[nH]c4ccccc34)nn12` [Compound 5]: the IC50 on BRD4 BD1 (setting [2]) turned out to be 17.1 µM. Further, on BRD4 BD2, the IC50 amounted to 23.2 µM and the “inhibitory activity for BD2 (in words)” value is listed as “have inhibitory activities for BD2”.
`Cc1nnc2ccc(N3CCSCC3)nn12` [Compound 17]: the “inhibitory activity against BD1 (in words)” value on BRD4 BD1 (AlphaScreen) was “no inhibitory efficacy”. Moreover, the IC50 at BRD4 BD1 (setting [1]) is greater than 32 µM.
Consider `Cc1nnc2ccc(NCCC(=O)Nc3ccccc3)nn12` [Compound 38], for which the IC50 on BRD4 BD1 (setting [1]) was greater than 32 µM.
The same measure, in the same setting: the result for `Cc1nnc2ccc(NCCNC(=O)OC(C)(C)C)nn12` [Compound 32] reads greater than 32 µM; that for `Cc1nnc2ccc(N3CCC4(CC3)CNC4)nn12` [Compound 23], greater than 32 µM; that for `CC(C)c1nnc2ccc(N3CCC(C(=O)O)CC3)nn12` [Compound 24, 1-(3-Isopropyl-[1,2,4]triazolo[4,3-b]pyridazin-6-yl)piperidine-4-carboxylic acid], greater than 32 µM.
